Here are results for five compounds from patent publication US11271238B2, “Applications of low-cost, thermal and electrochemically stable organic compounds as high performance redox active materials in redox flow batteries” (Utah State University, priority 2018, dated 2022).

Read-outs that look alike come from different tables or passages of the source. Some results are limits rather than exact numbers.

A word on the solubility: it is the dissolved amount per volume that the medium holds.

The nature of data set [1]: Electron transfer rate constant by Nicholson's method. The data set is classed as physicochemical. As to the method:
The electron transfer rate constants (k^0) for the electron transfers of [([…]]^3+ were estimated. Following the well-known Nicholson's method (R. S. Nicholson, Anal. Chem. 1965, 37, 1351-1355.), a solution containing 4.0 mM [(NPr)2TTz]Cl4 with 0.5 M NaCl was used to record CV curves (FIG. 6A and FIG. 6B). The peak-to-peak separation (reduction and oxidation peak potential gap), ΔEp, was obtained and used to calculate the kinetic parameter, Ψ, using Equation 2. And then, k^0 was calculated from equation 3 based on the relationship between Ψ and ν^-1/2. Ψ=(-0.6288+0.0021ΔEp)/(1-0.017ΔEp) (Equation 2) Ψ=k^0[πDnF/RT]^-1/2ν^-1/2 (Equation 3) where F, D, and n are defined in Equation 1, R=8.314, and ν represents the scan rate.

Data set [2] is described as follows: Linear sweep voltammetry with rotating disk electrode (Levich plot). The data set is classed as physicochemical. The conditions noted are these: 1.0 mM in 0.5 M NaCl, Levich equation. As for the experimental part: Linear sweep voltammetry (LSV) experiments were conducted using a Gamry 1000E potentiostat with a three-electrode system. A 5 mm diameter rotating glassy carbon disk encased in Teflon served as the working electrode. A glassy carbon rod was used as the counter electrode. An Ag/AgCl wire served as the reference electrode. The working electrode was cleaned using the same method as in the CV experiments. During the experiments, the working electrode rotated from 300 rpm to 2400 rpm at increments of 300 rpm. Three scans at each rotation rate were collected to ensure accuracy. LSV scans were conducted at a rate of 5 mV/s from 0.2 V to 0.8 V versus NHE.

A short description of the next data set: Aqueous solubility. The data set is classed as physicochemical.
Data set [3] can be described thus: Cyclic voltammetry in 0.5 M NaCl. Type of data set: physicochemical. As to the method:
Cyclic voltammetry was further used to characterize [(NPr)2TTz]Cl4.r All cyclic voltammetry experiments were conducted in an N2 purged 0.5 M NaCl aqueous solution with a Gamry 1000E potentiostat. A 3 mm PEEK encased glassy carbon disk was used as the working electrode. The working electrode was polished with 0.05 micron Al2O3 powder and rinsed with deionized H2O. A glassy carbon rod was used as the counter electrode. A silver wire coated with AgCl and suspended in 3.0 M KCl electrolyte was used as the reference electrode. The two redox peaks of [(NPr)2TTz]Cl4 were distinguished by peak fitting of its CV curve in the Origin program after removing background current.

Data set [4] can be described thus: Oxygen sensitivity of the reduced state (bubbling with air for 10 minutes). The data set is classed as physicochemical.
For data set [5] the following is noted: cited from earlier work.
Where [6] appears, read: 500 mV/s scan rate, 4.0 mM in 0.5 M NaCl.

On to `C[N+](C)(C)CCC[n+]1ccc(-c2nc3sc(-c4cc[n+](CCC[N+](C)(C)C)cc4)nc3s2)cc1.[Cl-].[Cl-].[Cl-].[Cl-]` [[(NPr)2TTz]Cl4, 4,4′-(thiazolo[5,4-d]thiazole-2,5-diyl)bis(1-(3-(trimethylammonio)propyl)pyridin-1-ium) tetrachloride], for which, in data set [1] (setting [6]), the “peak-to-peak separation ΔEp, 1st electron reduction” value is 53 mV and the “peak-to-peak separation ΔEp, 2nd electron reduction” value is 58 mV. For the same compound, the “electron transfer rate constant k^0, both single-electron reductions” value in data set [1] (lower limit, Ψ=20, 500 mV/s) is on record as “greater than 0.28 cm/s”. Besides, in data set [2], the “average diffusion coefficient (D) for [(NPr)2TTz]^4+ and [(NPr)2TTz]^3+” value was 3.15×10^−6 cm^2 s^−1. In “Aqueous solubility” (2.0 m NaCl aqueous solution, saline or isotonic, in 2.0 m NaCl, read-out: solubility in 2.0 m NaCl), the solubility turned out to be 1100 mM. Further, in “Aqueous solubility” (in 2.0 m NaCl), the “charge capacity corresponding to solubility” value came out at 60.0 Ah L^−1. Also, in “Aqueous solubility” (in H2O), the “charge capacity corresponding to solubility” value came to 69.7 Ah L^−1. In addition, the solubility in the data set “Aqueous solubility” (water, in H2O, read-out: solubility in water) came out at 1300 mM. For the same compound, in data set [3] (4.0 mM in 0.5 M NaCl), the “E1/2 of 1st electron reduction ([(NPr)2TTz]^4+/3+)” value is −0.38 V vs. NHE and the “E1/2 of 2nd electron reduction ([(NPr)2TTz]^3+/2+)” value is on record as −0.50 V vs. NHE. For the same compound, in data set [3] (neutral NaCl solution), the average redox potential of the two single-electron reductions was -0.44 V.
For `C[N+](C)(C)CCCN1C=CC(=c2nc3sc(=C4C=CN(CCC[N+](C)(C)C)C=C4)nc3s2)C=C1.[Cl-].[Cl-]` [[(NPr)2TTz]Cl2, 3,3′-(thiazolo[5,4-d]thiazole-2,5-diylidenebis(pyridin-1(4H)-yl-4(4H)-ylidene))bis(N,N,N-trimethylpropan-1-aminium) Dichloride], the “oxygen sensitivity of the two-electron reduced state” value in data set [4] is recorded as “no change in color”.
With “N, N, N, 2, 2, 6, 6-Heptamethylpiperidinyloxy-4-ammonium Chloride [N^Me-TEMPO, reference compound]”, the single-electron oxidation potential entry in data set [3] (neutral NaCl solution) is “+1.0 V (vs. NHE)”.
`C[n+]1ccc(-c2nc3sc(-c4cc[n+](C)cc4)nc3s2)cc1.[Cl-].[Cl-]` [(Me2TTz)Cl2, N,N′-dimethyl 2,5-bis(4-pyridinium)thiazolo[5,4-d]thiazole Dichloride] gave a water solubility in the data set “Aqueous solubility” (in water) of under 10 mm.
Regarding `C[n+]1ccc(-c2cc[n+](C)cc2)cc1` [Methyl viologen], in data set [5] (MV^+ and MV^0), the “air sensitivity of reduced states” value is given as “highly air sensitive”. Moreover, in data set [5] (aqueous solution), the “solubility of charge-neutral state in aqueous solution” value is reported as “insolubility”.
